Measurements: EP0719267B1, “SECOND MESSENGER CELL SIGNALING INHIBITORS” (CELL THERAPEUTICS, INC., priority 1993, dated 1994)

Columns and labels:
Swiss/3T3 cells = experiment: EGF-induced proliferation in Swiss/3T3 cells; assay type: cell-based; conditions: 20 ng/ml EGF
Experimental: As illustrated in figures 67A and 67B, inventive compound no. 58 inhibited VEGF-induced proliferation in HUVEC and EGF-induced proliferation in Swiss/3T3 cells, respectively. Procedurally, HUVEC were placed in 0.5% serum containing medium prior to stimulation with various concentrations of VEGF, with or without inventive compound no. 58 (5 µM). Twenty four hours later the cells were pulsed with ^3H-TdR and 4 hours later harvested and counted by scintillation. The IC50 for inhibition was approximately 50-100 nM. Swiss 3T3 cells were stimulated with 20 ng/ml EGF and 24 hours later harvested and counted by scintillation.

[1] = system: murine thymocyte proliferation; experiment: Thymocyte proliferation co-stimulated by ConA and IL-2 (tritiated thymidine); assay type: cell-based, Balb/C mice; conditions: for inhibition with delayed addition: 1 µM

Structure (SMILES) | IC50 (Swiss/3T3 cells) [nM] | inhibition with delayed addition ([1]; added 72 and 92 hours after IL-2) | inhibition with delayed addition ([1]; added 24 hours after IL-2) | IC50 ([1]; Mus musculus, Thymocyte, Con A (0.25 µg/ml) and IL-2 (20 ng/ml), 96 hours) [nM]
COc1cc(CNCC(O)CCCCCCCCCn2c(=O)c3c(ncn3C)n(C)c2=O)cc(OC)c1OC (stereo not shown) [compound no. 58, 1-[11-(3,4,5-Trimethoxybenzylamino)-10-hydroxyundecyl]-3,7-dimethylxanthine] | ~20 | – | – | –
CCCCCCCCNCC(O)CCCCCCCCCn1c(=O)c2c(ncn2C)n(C)c1=O (stereo not shown) [compound no. 45] | – | significant inhibition remained even at 72 and 92 hours following addition of IL-2 | maximally inhibits thymocyte proliferation even when added 24 hours following the IL-2 stimulation | ~350
